Laboratory results from PubChem BioAssay (NCI).
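Protocol summary: plate cells (96-well), add compound at 5 concentrations, incubate 48 h, interpolate endpoints linearly. Definition used: TGI = concentration required for complete inhibition of growth.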 Where a SMILES comes first, the peptide text is derived from it. The star is where a group is joined. Boc = CC(C)(C)OC(=O)*; OBn = c1ccc(CO*)cc1

Experiments:
Assay in all cases: growth of human tumour cells (NCI), 48 h
HCT-15 colon = system: HCT-15 colon
UO-31 renal = system: UO-31 renal
MCF7 breast = system: MCF7 breast
HOP-92 NSCLC = system: HOP-92 NSCLC
M14 melanoma = system: M14 melanoma
KM12 colon = system: KM12 colon
786-0 renal = system: 786-0 renal
A549 NSCLC = system: A549 NSCLC

| Compound | TGI (HCT-15 colon) [µM] | TGI (UO-31 renal) [µM] | TGI (MCF7 breast) [µM] | TGI (HOP-92 NSCLC) [µM] | TGI (M14 melanoma) [µM] | TGI (KM12 colon) [µM] | TGI (786-0 renal) [µM] | TGI (A549 NSCLC) [µM] |
| --- | --- | --- | --- | --- | --- | --- | --- | --- |
| Cc1ccc(S(=O)(=O)NNC2(NS(=O)(=O)c3ccc(Cl)cc3)C(Cl)=C(Cl)C(=O)c3ccccc32)cc1 (stereo not given) | 83.8 | 42.5 | 37.3 | 41.6 | 33 | 35.2 | 28.2 | 34.2 |
| CCOc1cc2c(cc1OC(C)=O)C(=O)CC[C@H]1C3CC[C@H](OC(C)=O)[C@@]3(C)CC[C@H]21 (stereo not given in full) | > 100 | > 100 | > 100 | > 100 | > 100 | > 100 | > 100 | > 100 |
| O=C1[C@@H]2C[C@@H](O)CN2C(=O)c2ccccc2N1CCCO | > 100 | > 100 | > 100 | > 100 | > 100 | > 100 | > 100 | > 100 |
| C/C(=N\NC(=S)NC(C)(C)C)c1ccccn1 | > 100 | 14.3 | > 100 | 9.47 | 9.19 | > 100 | 98.4 | > 38.4 |
| CC(C)(C)[Si](C)(C)OCCOCn1cc(F)c(=O)[nH]c1=O | > 100 | > 100 | > 100 |  | > 100 | > 100 | > 100 | > 100 |
| O=C(Cc1ccccc1)NNc1nc(NNC(=O)c2ccncc2)nc(Nc2cccc(Cl)c2)n1 | > 10 |  | > 10 | > 10 | > 10 | > 10 | > 10 | > 10 |
| O=C1/C(=C/c2ccccc2)CCC/C1=C\c1ccc(O)c(CN2CCCCC2)c1 | 3.74 | 19.7 | 19.2 | 15.4 | 26.1 | 4.98 | 3.4 | 36.4 |
| Nc1nc(N)c2[nH]cnc2n1 (tested in a mixture with another compound) | > 100 | 58.4 | 21.7 | > 100 | 36.2 | > 100 | > 100 | 47.4 |
| CC(C)/C(Cl)=N\OC(=O)Nc1ccc(F)cc1F | 21.8 | 17.8 | 13.4 | 3.61 | 13.3 | 35.1 | 13.3 | 34.6 |
| CCCCOCCOC1=CC(=O)c2c(O)ccc(O)c2C1=O |  | 3.01 | 3.15 | 4.44 | 2.18 | 3.14 | 3.03 | 3.41 |
| CCOC(=O)C1(C/C=C\CBr)CCCCCCCCCCC1=O (stereo not given) | 32.8 | 15.2 | 42.3 |  | 55 | 28.8 | > 53 | > 53 |
| COc1cc(Oc2nc3c(N)cc(C(F)(F)F)cc3nc2-c2ccccc2)cc(OC)c1OC | > 100 | > 100 | > 50.5 | > 65.4 | > 100 | > 100 | > 41.1 | > 100 |
| CC(C)(C)OC(=O)N(CCNS(=O)(=O)c1cccc2cnccc12)CCC(=O)ON1C(=O)CCC1=O | > 100 | > 100 | > 100 | > 100 | > 100 |  | > 100 | > 100 |
| CC(=O)N(CN1C(=O)CCC1C(=O)O)c1cccc(O)c1 (stereo not given) | > 100 | > 100 | > 100 | > 100 | > 100 | > 100 | > 100 | > 100 |
| O=c1oc(-c2ccccc2)c(-c2ccccc2)n1-c1ccc(Br)cc1 | > 100 | > 100 | > 100 | > 100 | > 100 | > 100 | > 100 | > 100 |
| CC(NC(=O)C(Cc1ccccc1)NC(=O)C(Cc1ccccc1)NC(=O)OC(C)(C)C)C(=O)OCc1ccccc1 (stereo not drawn) (Boc-Phe-Phe-Ala-OBn; configuration not given here) |  | > 100 | > 100 | 81.2 | > 100 | > 100 | > 100 | > 100 |
| O=C(CNC(=O)OCc1ccccc1)NCCCCC(NC(=O)OCc1ccccc1)C(=O)NC(CCCCNC(=O)CNC(=O)OCc1ccccc1)C(=O)OCc1ccccc1 (stereo not given) | > 62.5 | > 62.5 | > 62.5 |  | > 62.5 |  | > 62.5 | > 62.5 |
| C/C(CC1SCCCS1)=C(/C)CC1SCCCS1 | > 100 | > 100 | > 100 |  | > 100 | > 100 | > 100 | > 100 |
| Cc1ccc(-c2c(C#N)c(N)nc3c2CCS(=O)(=O)c2ccccc2-3)cc1 | > 100 | > 100 |  | > 100 |  | > 100 | > 100 | > 100 |
| c1ccc2c(c1)nc1n2C2CCC(C2)N1 (stereo not given) | > 10 | > 10 | > 10 | > 10 | > 10 |  | > 10 | > 10 |
| Cc1n[nH]c(=O)n1/N=C\CC/C=N\n1c(C)n[nH]c1=O | > 100 | > 100 | > 100 | > 100 | > 100 | > 100 | > 100 | > 100 |
| CC(C)C/C=C/C1=NN(c2cccc(S(=O)(=O)O)c2)C2(C1)SCC(=O)N2c1nc2ccccc2s1 (stereo not given) | > 100 | > 100 | > 100 | > 100 | > 100 | > 100 | 46.3 | > 100 |
| CC1(C)OC(=O)C2(O1)C(=O)C1CCCCC12 (stereo not given) | > 100 | > 100 | > 100 |  | > 100 | > 100 | > 100 | > 100 |
| O=C1C(=Nc2ccccc2)Oc2cc(O)ccc21 | > 100 | > 100 | > 100 |  | > 100 | > 100 | > 100 | > 100 |
| CC12c3c4cc(Br)cc3Oc3cc(Br)cc(c31)Oc1cc(Br)cc(c12)O4 | > 100 | > 100 | > 100 |  | > 100 | > 100 | 44.4 | > 100 |
